Assay results taken from patent publication US9510598B2, “Nitrogen-containing heterocyclic compounds for plant disease control” (BAYER CROPSCIENCE AG, priority 2012, dated 2016).
Like-named read-outs stand apart in the source and are kept apart here.

Tests used:
Septoria tritici = assay: In vivo preventive test on Septoria tritici (leaf spot on wheat); settings: 500 ppm; wheat plants sprayed 24 hours before contamination; grading 21 to 28 days after contamination vs control plants
Method: Wheat plants (“Scipion” variety), sown in starter cups on a 50/50 peat soil-pozzolana substrate and grown at 22° C. (12 h)/20° C. (12 h), are treated at the 1-leaf stage (10 cm height) by spraying with the active ingredient prepared as described above. Plants, used as controls, are treated with the mixture of acetone/tween/DMSO/water not containing the active material. After 24 hours, the plants are contaminated by spraying the leaves with an aqueous suspension of cryopreserved Septoria tritici spores (500 000 spores per ml). […] Grading (% of efficacy) is carried out 21 to 28 days after the contamination, in comparison with the control plants.

[1] = assay type: physicochemical; settings: for chromatographic logP: reversed phase HPLC column, HPLC reversed phase, pH 2.7, 0.1% formic acid in water / acetonitrile, calibration with alkan-2-ones, read-out: log P (HCOOH)
[2] = method [a]: HPLC/LC-MS on reversed phase at pH 2.7, 0.1% formic acid in water / acetonitrile, linear gradient 10% to 95% acetonitrile
[3] = method [a]: HPLC/LC-MS on reversed phase at pH 2.7, 0.1% formic acid in water / acetonitrile, gradient 10% to 95% acetonitrile
[4] = HPLC on reversed phase columns, method [a]: pH 2.7, 0.1% formic acid in water / acetonitrile, linear gradient 10% to 95% acetonitrile
[5] = HPLC on reversed phase columns, method [a]: pH 2.7, 0.1% formic acid in water and acetonitrile, linear gradient 10% to 95% acetonitrile
[6] = linear gradient 10% to 95% acetonitrile

Row | SMILES | % of efficacy (protection) (Septoria tritici) [%] | log P [1, 4] | other results
1 | CC(C)NC(=O)C1(C)CC(c2ccc3ncccc3c2)=NO1 (centres unmarked) [compound 143] | 71 | – | log P [1, 2]: 1.44^[a]
2 | CC(C)NC(=O)C12CC1C(c1ccc3ncc(Br)cc3c1)=NO2 (racemic) [compound 397] | 75 | – | log P [1, 3]: 2.82[a]
3 | COC1(C(=O)NC(C)C)CC(c2ccc3ncc(Br)cc3c2)=NO1 (single isomer, unassigned) [compound 285] | 100 | 2.57[a] | –
4 | C#Cc1cnc2ccc(C3=NOC(OC)(C(=O)NCC(O)CO)C3)cc2c1 (centres unmarked) [compound 473] | 75 | – | log P [1, 3]: 1.44[a]
5 | C#Cc1cnc2ccc(C3=NOC(C)(C(=O)NCC4CCC(=O)N4C)C3)cc2c1 (centres unmarked) [compound 213] | 97 | – | log P [1, 2]: 1.65^[a]
6 | C#Cc1cnc2ccc(C3=NOC(C)(C(=O)NC(CC)c4cn(CC)nc4C)C3)cc2c1 (centres unmarked) [compound 347] | 100 | 2.52[a] | –
7 | C#Cc1cc2cc(C3=NOC(C)(C(=O)NC(C)C)C3)ccc2nc1OC (centres unmarked) [compound 133] | 100 | – | log P [1, 2]: 3.09^[a]
8 | Cn1ccc(NC(=O)C2(C(F)(F)F)CC(c3ccc4ncc(Br)cc4c3)=NO2)c1 (centres unmarked) [compound 108] | 75 | – | log P [1, 2]: 3.5^[a]
9 | C#CCCNC(=O)C1(C)CC(c2ccc3ncc(C#C)cc3c2)=NO1 (racemic) [compound 355] | 100 | 2.25[a] | –
10 | C=Cc1cnc2ccc(C3=NOC(C)(C(=O)NC(C)C)C3)cc2c1 (centres unmarked) [compound 304] | 100 | 2.20[a] | –
11 | C#Cc1cnc2ccc(C3=NOC(C)(C(=O)NC(C)c4nc(C(C)C)no4)C3)cc2c1 (centres unmarked) [compound 329] | 100 | 2.94[a] | –
12 | C#Cc1cnc2ccc(C3=NOC(CC)(C(=S)NCc4cn(CC)nc4C)C3)cc2c1 (centres unmarked) [compound 507] | 97 | – | log P [1, 3]: 3.31[a]
13 | C#Cc1cnc2ccc(C3=NOC(C)(C(=O)NCc4ccc5[nH]ccc5c4)C3)cc2c1 (centres unmarked) [compound 115] | 75 | – | log P [1, 2]: 2.63^[a]
14 | C#Cc1cnc2ccc(C3=NOC(C)(C(=O)NC(C)c4ccccc4)C3)cc2c1 (centres unmarked) [compound 350] | 100 | 3.06[a] | –
15 | CCn1cc(CNC(=O)C2(C)CC(c3ccc4nc(Cl)c(Br)cc4c3)=NO2)c(C)n1 (centres unmarked) [compound 286] | 92 | 3.12[a] | –
16 | CC(C)NC(=O)C1(C)CC(c2ccc3nc(Cl)c(Br)cc3c2)=NO1 (centres unmarked) [compound 287] | 83 | 3.46[a] | –
17 | CC(C)ONC(=O)C1(C)CC(c2ccc3ncc(Br)cc3c2)=NO1 (racemic) [compound 388] | 100 | – | log P [1, 3]: 2.44[a]
18 | CC(NC(=O)C1(C)CC(c2ccc3ncc(Br)cc3c2)=NO1)c1ccccc1Cl (centres unmarked) [compound 294] | 70 | 3.85[a] | –
19 | CCn1cc(CNC(=O)C2(CCl)CC(c3ccc4ncc(Br)cc4c3)=NO2)c(C)n1 (centres unmarked) [compound 138] | 93 | – | log P [1, 2]: 2.56^[a]
20 | C#Cc1cc2cc(C3=NOC(C)(C(=O)NCc4cn(CC)nc4C)C3)ccc2nc1C#N (centres unmarked) [compound 491] | 75 | – | log P [1, 3]: 2.39[a]
21 | C#Cc1cnc2ccc(C3=NOC(OC)(C(=O)N(OC)C(C)CC)C3)cc2c1 (centres unmarked) [compound 466] | 97 | – | log P [1, 3]: 3.31[a]

Row | SMILES | % of efficacy (protection) (Septoria tritici) [%] | log P [1, 4] | other results
22 | CC1(C(=O)NC(C)(C#N)C2CC2)CC(c2ccc3ncc(Br)cc3c2)=NO1 (centres unmarked) [compound 301] | 80 | – | –
23 | Cc1cnc(CNC(=O)C2(C(C)O)CC(c3ccc4ncc(Br)cc4c3)=NO2)cn1 (mixture of isomers) [compound 562] | 86 | – | –
24 | CC(O)C1(C(=O)NCC2COC(C)(C)O2)CC(c2ccc3ncc(Br)cc3c2)=NO1 (mixture of isomers) [compound 555] | 71 | – | –
25 | C#Cc1cnc2ccc(C3=NOC(C)(C(=O)NCCc4ccc(OC(F)(F)F)cc4)C3)cc2c1 (centres unmarked) [compound 209] | – | – | log P [1, 2]: 3.55^[a]
26 | C#CC(C)(C)NC(=O)C1(C)CC(c2ccc3ncc(Br)cc3c2)=NO1 (centres unmarked) [compound 624] | – | 3.08[a] | –
27 | CC(C)NC(=O)C1(C(F)F)CC(c2ccc3ncc(I)cc3c2)=NO1 (centres unmarked) [compound 620] | – | 3.17[a] | –
28 | C#Cc1cnc2c(Cl)cc(C3=NOC(OC)(C(=O)NCC4COC(C)(C)O4)C3)cc2c1 (centres unmarked) [compound 589] | – | 2.82[a] | –
29 | C#Cc1cnc2ccc(C3=NOC(C)(C(=O)NCc4cccnc4N(C)C)C3)cc2c1 (centres unmarked) [compound 808] | – | – | log P [1, 5]: 1.43[a]
30 | Cc1nn(C2CC2)cc1CNC(=O)C1(C)CC(c2ccc3ncc(Br)cc3c2)=NO1 (centres unmarked) [compound 669] | – | 2.52[a] | –
31 | CC1(C)OCC(CNC(=O)C2(C(F)F)CC(c3ccc4ncc(Br)cc4c3)=NO2)O1 (centres unmarked) [compound 622] | – | 2.96[a] | –
32 | CC(NC(=O)C1(C)CC(c2ccc3ncc(Br)cc3c2)=NO1)c1nn(C)c(=O)n1C (centres unmarked) [compound 327] | – | 1.99[a] | –
33 | COc1nc2ccc(C3=NOC(C)(C(=O)NC(C)C)C3)cc2cc1Br (centres unmarked) [compound 275] | – | 3.54[a] | –
34 | CCn1cc(CNC(=O)C2(C)CC(c3cc4cc(Br)cnc4c(F)c3F)=NO2)cn1 (centres unmarked) [compound 13] | – | – | Log P ([1]; method [a]: HPLC/LC-MS on reversed phase at pH 2.7, 0.1% formic acid in water and acetonitrile, linear gradient 10% to 95% acetonitrile): 2.5^[a]
35 | CCC(C)Oc1cc(CNC(=O)C2(C)CC(c3ccc4ncc(Br)cc4c3)=NO2)ccn1 (centres unmarked) [compound 759] | – | – | log P [1, 5]: 3.48[a]
36 | C=C(C)CNC(=O)C1(C)CC(c2ccc3ncc(Br)cc3c2)=NO1 (centres unmarked) [compound 715] | – | – | log P [1, 5]: 2.90[a]
37 | CCc1ccc(CNC(=O)C2(C)CC(c3ccc4ncc(Br)cc4c3)=NO2)nc1 (centres unmarked) [compound 744] | – | – | log P [1, 5]: 2.05[a]
38 | C#Cc1cnc2c(Cl)cc(C3=NOC(OC)(C(=O)NC(C)C)C3)cc2c1 (centres unmarked) [compound 590] | – | 2.84[a] | –
39 | C#CC1(C(=O)NCCCOCC)CC(c2ccc3ncc(Br)cc3c2)=NO1 (centres unmarked) [compound 627] | – | 2.94[a] | –
40 | CCC1C(c2ccc3ncc(Br)cc3c2)=NOC1(C)C(=O)NC(C)C (centres unmarked) [compound 283] | – | 3.76[a] | –
41 | CCSc1cnc2ccc(C3=NOC(C)(C(=O)NCc4cn(CC)nc4C)C3)cc2c1 (centres unmarked) [compound 276] | – | 2.39[a] | –
42 | C#Cc1cnc2ccc(C3=NOC(C)(C(=O)NCc4cnn(CC(F)F)c4)C3)cc2c1 (centres unmarked) [compound 647] | – | 2.17[a] | –

Row | SMILES | % of efficacy (protection) (Septoria tritici) [%] | log P [1, 4] | other results
43 | CCn1cc(CNC(=O)C2(C)CC(c3ccc4nc(C(N)=O)c(I)cc4c3)=NO2)c(C)n1 (centres unmarked) [compound 484] | – | – | log P [1, 3]: 1.60[a]
44 | O=Cc1cc2cc(Br)cnc2c(F)c1F [3-bromo-7,8-difluoroquinoline-6-carbaldehyde] | – | – | chromatographic logP [1, 6]: 2.71
45 | CCn1cc(CNC(=O)C2(C#N)CC(c3ccc4ncc(Br)cc4c3)=NO2)c(C)n1 (centres unmarked) [compound 709] | – | – | log P [1, 5]: 2.51[a]
46 | CC1(C(=O)NC2CC(F)(F)C2)CC(c2ccc3ncc(Br)cc3c2)=NO1 (centres unmarked) [compound 755] | – | – | log P [1, 5]: 2.86[a]
47 | CCn1cc(CNC(=O)C2(C)CC(c3ccc4ncc(Br)cc4c3)=NO2)c(Cl)n1 (centres unmarked) [compound 704] | – | – | log P [1, 5]: 2.84[a]
48 | COC1(C(=O)NCCC2CC2)CC(c2ccc3ncc(Br)cc3c2)=NO1 (racemic) [compound 822] | – | – | log P [1, 5]: 3.03[a]
49 | COc1cccnc1CNC(=O)C1(C)CC(c2ccc3ncc(Br)cc3c2)=NO1 (centres unmarked) [compound 644] | – | 2.26[a] | –
50 | C#Cc1cnc2ccc(C3=NOC(C)(C(=O)NCc4cc(C(C)C)ccn4)C3)cc2c1 (centres unmarked) [compound 793] | – | – | log P [1, 5]: 1.84[a]
51 | CC1(C(=O)NCC2CCC(C(F)(F)F)CC2)CC(c2ccc3ncc(Br)cc3c2)=NO1 (centres unmarked) [compound 119] | – | – | log P [1, 2]: 4.01^[a]
52 | CC(C)(C)ONC(=O)C1(C)CC(c2ccc3ncc(Br)cc3c2)=NO1 (racemic) [compound 373] | – | – | log P [1, 3]: 2.66[a]
53 | CC1(C(=O)N2CCOCC2)CC(c2ccc3ncc(Br)cc3c2)=NO1 (centres unmarked) [compound 771] | – | – | log P [1, 5]: 2.48[a]
54 | CCOCCCNC(=O)C12CC1C(c1ccc3ncc(Br)cc3c1)=NO2 (racemic) [compound 401] | – | – | log P [1, 3]: 2.84[a]
55 | CCOCCCNC(=O)C1(C(C)=O)CC(c2ccc3ncc(Br)cc3c2)=NO1 (centres unmarked) [compound 582] | – | 2.90[a] | –
56 | C=C(C)C1(C(=O)NCc2cn(CCC)nc2C)CC(c2ccc3ncc(Br)cc3c2)=NO1 (centres unmarked) [compound 519] | – | 3.17[a] | –
57 | CCCn1cc(CNC(=O)C2(C(F)(F)F)CC(c3ccc4ncc(Br)cc4c3)=NO2)c(C)n1 (centres unmarked) [compound 107] | – | – | log P [1, 2]: 3.33^[a]
58 | O/N=C/c1ccc2ncc(Cl)cc2c1 [1-(3-chloroquinolin-6-yl)-N-hydroxymethanimine] | – | – | chromatographic logP [1, 6]: 1.78
59 | C#Cc1cnc2ccc(C3=NOC(C)(C(=O)NC4CC(C)(C)N(C)C(C)(C)C4)C3)cc2c1 (centres unmarked) [compound 217] | – | – | log P [1, 2]: 1.34^[a]
60 | CC1(C(=O)NC2CCCCNC2=O)CC(c2ccc3ncc(Br)cc3c2)=NO1 (centres unmarked) [compound 252] | – | 2.23^[a] | –
61 | C#Cc1cnc2c(Cl)cc(C3=NOC(OC)(C(=O)NCc4cn(CC)nc4C)C3)cc2c1 (centres unmarked) [compound 587] | – | 2.53[a] | –
62 | Cc1ccc(CNC(=O)C2(C)CC(c3ccc4ncc(Br)cc4c3)=NO2)o1 (centres unmarked) [compound 90] | – | – | log P [1, 2]: 3.15^[a]
